Data taken from the NIST ThermoML archive (doi:10.1021/je5007532).
± gives the expanded uncertainty stated by the source.

Experiment: xn = mol fraction of the nth substance listed
Conditions: Liquid; for mass density / speed of sound: 101 kPa; for mass density: Vibrating tube method; for viscosity: 100 kPa, Falling or rolling sphere viscometry; for speed of sound: Sing-around technique in a fixed-path interferometer

CC(C)CC(C)(C)C [2,2,4-trimethylpentane] + CCCCCCC
Conditions | mass density [kg/m3] | speed of sound [m/s] | viscosity [mPa·s]
313.15 K, x1 = 0.8 | 673.8 ± 0.17 | – | –
313.15 K, x1 = 0.9 | 674.52 ± 0.18 | – | –
313.15 K, x1 = 1 | 675.23 ± 0.17 | – | –
318.15 K, x1 = 0.1 | 663.44 ± 0.2 | 1040.7 ± 0.7 | 0.32 ± 0.003
318.15 K, x1 = 0.2001 | 664.39 ± 0.17 | 1036.1 ± 0.7 | 0.325 ± 0.003
318.15 K, x1 = 0.2999 | 665.34 ± 0.17 | 1031.3 ± 0.7 | 0.33 ± 0.003
318.15 K, x1 = 0.4001 | 666.28 ± 0.17 | 1026.5 ± 0.8 | 0.336 ± 0.003
318.15 K, x1 = 0.5001 | 667.18 ± 0.17 | 1022.1 ± 0.8 | 0.343 ± 0.003
318.15 K, x1 = 0.6 | 668.02 ± 0.17 | 1017.4 ± 0.8 | 0.349 ± 0.003
318.15 K, x1 = 0.6999 | 668.78 ± 0.17 | 1012.8 ± 0.8 | 0.356 ± 0.003
318.15 K, x1 = 0.8 | 669.55 ± 0.18 | 1008.4 ± 0.8 | 0.363 ± 0.003
318.15 K, x1 = 0.9 | 670.28 ± 0.18 | 1003.8 ± 0.8 | 0.372 ± 0.003
318.15 K, x1 = 1 | 670.98 ± 0.17 | 999.3 ± 0.8 | 0.38 ± 0.004
323.15 K, x1 = 0.1 | 659.07 ± 0.2 | 1019.8 ± 0.7 | 0.305 ± 0.003
323.15 K, x1 = 0.2001 | 660.04 ± 0.17 | 1015.2 ± 0.7 | 0.309 ± 0.003
323.15 K, x1 = 0.2999 | 661 ± 0.17 | 1010.5 ± 0.7 | 0.314 ± 0.003
323.15 K, x1 = 0.4001 | 661.95 ± 0.17 | 1005.7 ± 0.7 | 0.32 ± 0.003
323.15 K, x1 = 0.5001 | 662.86 ± 0.17 | 1001.4 ± 0.8 | 0.326 ± 0.003
323.15 K, x1 = 0.6 | 663.71 ± 0.17 | 996.8 ± 0.8 | 0.332 ± 0.003
323.15 K, x1 = 0.6999 | 664.49 ± 0.18 | 992.3 ± 0.8 | 0.338 ± 0.003
323.15 K, x1 = 0.8 | 665.28 ± 0.18 | 987.9 ± 0.8 | 0.345 ± 0.003
323.15 K, x1 = 0.9 | 666.02 ± 0.18 | 983.3 ± 0.8 | 0.353 ± 0.003
323.15 K, x1 = 1 | 666.75 ± 0.18 | 979.2 ± 0.8 | 0.361 ± 0.003
328.15 K, x1 = 0.1 | 654.65 ± 0.2 | 999 ± 0.7 | 0.291 ± 0.003
328.15 K, x1 = 0.2001 | 655.64 ± 0.17 | 994.4 ± 0.7 | 0.295 ± 0.003
328.15 K, x1 = 0.2999 | 656.61 ± 0.17 | 989.8 ± 0.7 | 0.3 ± 0.003
328.15 K, x1 = 0.4001 | 657.59 ± 0.17 | 985.1 ± 0.7 | 0.305 ± 0.003
328.15 K, x1 = 0.5001 | 658.52 ± 0.18 | 980.8 ± 0.7 | 0.311 ± 0.003
328.15 K, x1 = 0.6 | 659.37 ± 0.18 | 976.3 ± 0.8 | 0.316 ± 0.003
328.15 K, x1 = 0.6999 | 660.16 ± 0.18 | 971.8 ± 0.8 | 0.323 ± 0.003
328.15 K, x1 = 0.8 | 660.98 ± 0.18 | 967.4 ± 0.8 | 0.329 ± 0.003
328.15 K, x1 = 0.9 | 661.73 ± 0.18 | 963 ± 0.8 | 0.335 ± 0.003
328.15 K, x1 = 1 | 662.44 ± 0.18 | 958.7 ± 0.8 | 0.343 ± 0.003
333.15 K, x1 = 0.1 | 650.21 ± 0.2 | 978.3 ± 0.7 | 0.276 ± 0.005
333.15 K, x1 = 0.2001 | 651.22 ± 0.18 | 973.9 ± 0.7 | 0.28 ± 0.005
333.15 K, x1 = 0.2999 | 652.2 ± 0.18 | 969.2 ± 0.7 | 0.286 ± 0.005
333.15 K, x1 = 0.4001 | 653.19 ± 0.18 | 964.6 ± 0.7 | 0.29 ± 0.005
333.15 K, x1 = 0.5001 | 654.14 ± 0.18 | 960.4 ± 0.7 | 0.294 ± 0.005
333.15 K, x1 = 0.6 | 655.01 ± 0.18 | 955.8 ± 0.8 | 0.3 ± 0.005
333.15 K, x1 = 0.6999 | 655.81 ± 0.18 | 951.6 ± 0.8 | 0.306 ± 0.005
333.15 K, x1 = 0.8 | 656.64 ± 0.18 | 947.3 ± 0.8 | 0.313 ± 0.005
333.15 K, x1 = 0.9 | 657.4 ± 0.18 | 942.9 ± 0.8 | 0.319 ± 0.005
333.15 K, x1 = 1 | 658.16 ± 0.18 | 938.6 ± 0.8 | 0.326 ± 0.005
338.15 K, x1 = 0.1 | 645.76 ± 0.2 | 957.8 ± 0.7 | –
338.15 K, x1 = 0.2001 | 646.75 ± 0.18 | 953.3 ± 0.7 | –
338.15 K, x1 = 0.2999 | 647.77 ± 0.18 | 948.7 ± 0.7 | –
338.15 K, x1 = 0.4001 | 648.75 ± 0.18 | 944.3 ± 0.7 | –
338.15 K, x1 = 0.5001 | 649.71 ± 0.18 | 940.1 ± 0.7 | –
338.15 K, x1 = 0.6 | 650.6 ± 0.18 | 935.8 ± 0.7 | –
338.15 K, x1 = 0.6999 | 651.41 ± 0.18 | 931.3 ± 0.8 | –
338.15 K, x1 = 0.8 | 652.29 ± 0.18 | 927.2 ± 0.8 | –
338.15 K, x1 = 0.9 | 653.03 ± 0.18 | 922.9 ± 0.8 | –
338.15 K, x1 = 1 | 653.8 ± 0.18 | 918.7 ± 0.8 | –
343.15 K, x1 = 1 | 649.4 ± 0.18 | 899 ± 0.6 | –
